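Following 48 hours of exposure in 96-well plates, responses at five concentrations were used to interpolate endpoints linearly. GI50 is the concentration that inhibits growth by half. TGI: concentration producing complete growth inhibition.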
How the values were obtained:
Assay in all cases: inhibition of tumour cell growth, NCI panel, 48 h
[1] = system: A549 NSCLC
[2] = system: ACHN renal
[3] = system: BT-549 breast
[4] = system: CAKI-1 renal
[5] = system: CCRF-CEM leukemia
[6] = system: COLO 205 colon
[7] = system: DU-145 prostate
[8] = system: EKVX NSCLC
[9] = system: HCC-2998 colon
[10] = system: HCT-116 colon
[11] = system: HCT-15 colon
[12] = system: HOP-62 NSCLC
[13] = system: HOP-92 NSCLC
[14] = system: HS 578T breast
[15] = system: HT29 colon
[16] = system: K-562 leukemia
[17] = system: KM12 colon
[18] = system: LOX IMVI melanoma
[19] = system: MALME-3M melanoma
[20] = system: MCF7 breast
[21] = system: MDA-MB-231 breast
[22] = system: MDA-MB-435
[23] = system: NCI-H226 lung
[24] = system: NCI-H23 lung
[25] = system: NCI-H460 lung
[26] = system: NCI/ADR-RES ovarian
[27] = system: OVCAR-3 ovarian
[28] = system: OVCAR-4 ovarian
[29] = system: OVCAR-5 ovarian
[30] = system: OVCAR-8 ovarian
[31] = system: PC-3 prostate
[32] = system: RPMI-8226 leukemia
[33] = system: SF-268 CNS
[34] = system: SF-295 CNS
[35] = system: SF-539 CNS
[36] = system: SK-MEL-28 melanoma
[37] = system: SK-MEL-5 melanoma
[38] = system: SK-OV-3 ovarian
[39] = system: SN12C renal
[40] = system: SNB-19 CNS
[41] = system: SNB-75 CNS
[42] = system: SW-620 colon
[43] = system: T-47D breast
[44] = system: TK-10 renal
[45] = system: U251 CNS
[46] = system: UACC-257 melanoma
[47] = system: UACC-62 melanoma
[48] = system: 786-0 renal
[49] = system: A498 renal
[50] = system: HL-60(TB) leukemia
[51] = system: M14 melanoma
[52] = system: MOLT-4 leukemia
[53] = system: NCI-H522 lung
[54] = system: RXF 393 renal
[55] = system: SK-MEL-2 melanoma
[56] = system: UO-31 renal

COc1cc(S(=O)(=O)Nc2ccc(C(=O)/C=C/c3ccc(O)cc3)cc2)ccc1F
GI50 [1]: > 100 µM
TGI [1]: > 100 µM
GI50 [2]: > 100 µM
TGI [2]: > 100 µM
GI50 [3]: > 100 µM
TGI [3]: > 100 µM
GI50 [4]: > 100 µM
TGI [4]: > 100 µM
GI50 [5]: > 100 µM
TGI [5]: > 100 µM
GI50 [6]: > 100 µM
TGI [6]: > 100 µM
GI50 [7]: > 100 µM
TGI [7]: > 100 µM
GI50 [8]: 80.5 µM
TGI [8]: > 100 µM
GI50 [9]: > 100 µM
TGI [9]: > 100 µM
GI50 [10]: > 100 µM
TGI [10]: > 100 µM
GI50 [11]: > 100 µM
TGI [11]: > 100 µM
GI50 [12]: > 100 µM
TGI [12]: > 100 µM
GI50 [13]: 1.55 µM
TGI [13]: 27.5 µM
GI50 [14]: > 100 µM
TGI [14]: > 100 µM
GI50 [15]: > 100 µM
TGI [15]: > 100 µM
GI50 [16]: > 100 µM
TGI [16]: > 100 µM
GI50 [17]: > 100 µM
TGI [17]: > 100 µM
GI50 [18]: > 100 µM
TGI [18]: > 100 µM
GI50 [19]: 35.1 µM
TGI [19]: > 100 µM
GI50 [20]: > 100 µM
TGI [20]: > 100 µM
GI50 [21]: 0.0267 µM
TGI [21]: 9.12 µM
GI50 [22]: > 100 µM
TGI [22]: > 100 µM
GI50 [23]: 22.4 µM
TGI [23]: 76.2 µM
GI50 [24]: > 100 µM
TGI [24]: > 100 µM
GI50 [25]: > 100 µM
TGI [25]: > 100 µM
GI50 [26]: > 100 µM
TGI [26]: > 100 µM
GI50 [27]: > 100 µM
TGI [27]: > 100 µM
GI50 [28]: > 100 µM
TGI [28]: > 100 µM
GI50 [29]: > 100 µM
TGI [29]: > 100 µM
GI50 [30]: > 100 µM
TGI [30]: > 100 µM
GI50 [31]: > 100 µM
TGI [31]: > 100 µM
GI50 [32]: 58.5 µM
TGI [32]: > 100 µM
GI50 [33]: > 100 µM
TGI [33]: > 100 µM
GI50 [34]: > 100 µM
TGI [34]: > 100 µM
GI50 [35]: > 100 µM
TGI [35]: > 100 µM
GI50 [36]: > 100 µM
TGI [36]: > 100 µM
GI50 [37]: > 100 µM
TGI [37]: > 100 µM
GI50 [38]: > 100 µM
TGI [38]: > 100 µM
GI50 [39]: 2.61 µM
TGI [39]: 89.7 µM
GI50 [40]: > 100 µM
TGI [40]: > 100 µM
GI50 [41]: 87.5 µM
TGI [41]: > 100 µM
GI50 [42]: > 100 µM
TGI [42]: > 100 µM
GI50 [43]: > 100 µM
TGI [43]: > 100 µM
GI50 [44]: 47 µM
TGI [44]: > 100 µM
GI50 [45]: > 100 µM
TGI [45]: > 100 µM
GI50 [46]: > 100 µM
TGI [46]: > 100 µM
GI50 [47]: 57.6 µM
TGI [47]: > 100 µM

Nc1ccccc1C#C/C=C\C#Cc1ccccc1
GI50 [48]: 16.3 µM
TGI [48]: 40.9 µM
GI50 [49]: 15.3 µM
TGI [49]: 31.1 µM
GI50 [1]: 17.8 µM
TGI [1]: 77.7 µM
GI50 [2]: 23.9 µM
TGI [2]: 75 µM
GI50 [3]: 3.29 µM
TGI [3]: 16.3 µM
GI50 [4]: 1.44 µM
TGI [4]: 8.35 µM
GI50 [5]: 0.804 µM
TGI [5]: 29.9 µM
GI50 [6]: 14.9 µM
TGI [6]: 29.3 µM
GI50 [7]: 12.2 µM
TGI [7]: 38.3 µM
GI50 [8]: 15.3 µM
TGI [8]: 41.1 µM
GI50 [10]: 14.1 µM
TGI [10]: 28.6 µM
GI50 [11]: 26.2 µM
TGI [11]: 92.3 µM
GI50 [50]: 13.7 µM
TGI [50]: > 100 µM
GI50 [12]: 15 µM
TGI [12]: 33.6 µM
GI50 [15]: 21.1 µM
TGI [15]: 44.8 µM
GI50 [16]: 12.8 µM
TGI [16]: > 100 µM
GI50 [17]: 4.51 µM
TGI [17]: 20.2 µM
GI50 [18]: 10.3 µM
TGI [18]: 24.1 µM
GI50 [51]: 15.8 µM
TGI [51]: 32.4 µM
GI50 [21]: 11.6 µM
TGI [21]: 26.8 µM
GI50 [22]: 2.64 µM
TGI [22]: 6.31 µM
GI50 [52]: 13.3 µM
TGI [52]: > 100 µM
GI50 [23]: 11.8 µM
TGI [23]: 31.3 µM
GI50 [24]: 14.8 µM
TGI [24]: 35.9 µM
GI50 [25]: 18.4 µM
TGI [25]: 52.6 µM
GI50 [53]: 4.72 µM
TGI [53]: 20.5 µM
GI50 [26]: 14.8 µM
TGI [26]: 32.4 µM
GI50 [27]: 4.14 µM
TGI [27]: 14.8 µM
GI50 [28]: 12.1 µM
TGI [28]: 32.4 µM
GI50 [29]: 15.5 µM
TGI [29]: 51.6 µM
GI50 [30]: 48 µM
TGI [30]: > 100 µM
GI50 [31]: 12.3 µM
TGI [31]: 54.1 µM
GI50 [32]: 1.26 µM
TGI [32]: 10.7 µM
GI50 [54]: 29.9 µM
TGI [54]: > 100 µM
GI50 [33]: 5.93 µM
TGI [33]: 28 µM
GI50 [34]: 11.3 µM
TGI [34]: 31.8 µM
GI50 [35]: 13 µM
TGI [35]: 28.6 µM
GI50 [55]: 25.5 µM
TGI [55]: 98.3 µM
GI50 [36]: 11.7 µM
TGI [36]: 27.1 µM
GI50 [37]: 5 µM
TGI [37]: 18.5 µM
GI50 [38]: 32 µM
TGI [38]: 81.3 µM
GI50 [39]: 13.4 µM
TGI [39]: 29.7 µM
GI50 [40]: 29.7 µM
TGI [40]: > 100 µM
GI50 [41]: 13.7 µM
TGI [41]: 58.9 µM
GI50 [42]: 19.3 µM
TGI [42]: 41.7 µM
GI50 [43]: 17.7 µM
TGI [43]: 38.3 µM
GI50 [45]: 19.2 µM
TGI [45]: 46.9 µM
GI50 [46]: 27.7 µM
TGI [46]: > 100 µM
GI50 [47]: 13 µM
TGI [47]: 27.7 µM
GI50 [56]: 17.7 µM
TGI [56]: 59.3 µM

From PubChem BioAssay (NCI)
